US20060063759A1, “Tricyclic steroid hormone nuclear receptor modulators” (priority 2002, published 2006)

Columns and labels:
[1] = in combination with standard CHF therapy, patients suffering from advanced CHF; cited from earlier work
human MR = molecular target: T1, human MR (Homo sapiens, UniProt P08235); assay: Mineralocorticoid Receptor Binding Assay ([3H]-aldosterone); conditions: [3H]-aldosterone binding, human MR expressed in Sf9 cells; read-out: MR Ki
T1 construct: The full length human MR gene is cloned from a human kidney or human brain cDNA library; His tag from the pAcHLT vector (own knowledge); made in house; host or cells: Sf9 insect cells (baculovirus, pAcHLT transfer vector)
T1 sequence (P08235 1-984): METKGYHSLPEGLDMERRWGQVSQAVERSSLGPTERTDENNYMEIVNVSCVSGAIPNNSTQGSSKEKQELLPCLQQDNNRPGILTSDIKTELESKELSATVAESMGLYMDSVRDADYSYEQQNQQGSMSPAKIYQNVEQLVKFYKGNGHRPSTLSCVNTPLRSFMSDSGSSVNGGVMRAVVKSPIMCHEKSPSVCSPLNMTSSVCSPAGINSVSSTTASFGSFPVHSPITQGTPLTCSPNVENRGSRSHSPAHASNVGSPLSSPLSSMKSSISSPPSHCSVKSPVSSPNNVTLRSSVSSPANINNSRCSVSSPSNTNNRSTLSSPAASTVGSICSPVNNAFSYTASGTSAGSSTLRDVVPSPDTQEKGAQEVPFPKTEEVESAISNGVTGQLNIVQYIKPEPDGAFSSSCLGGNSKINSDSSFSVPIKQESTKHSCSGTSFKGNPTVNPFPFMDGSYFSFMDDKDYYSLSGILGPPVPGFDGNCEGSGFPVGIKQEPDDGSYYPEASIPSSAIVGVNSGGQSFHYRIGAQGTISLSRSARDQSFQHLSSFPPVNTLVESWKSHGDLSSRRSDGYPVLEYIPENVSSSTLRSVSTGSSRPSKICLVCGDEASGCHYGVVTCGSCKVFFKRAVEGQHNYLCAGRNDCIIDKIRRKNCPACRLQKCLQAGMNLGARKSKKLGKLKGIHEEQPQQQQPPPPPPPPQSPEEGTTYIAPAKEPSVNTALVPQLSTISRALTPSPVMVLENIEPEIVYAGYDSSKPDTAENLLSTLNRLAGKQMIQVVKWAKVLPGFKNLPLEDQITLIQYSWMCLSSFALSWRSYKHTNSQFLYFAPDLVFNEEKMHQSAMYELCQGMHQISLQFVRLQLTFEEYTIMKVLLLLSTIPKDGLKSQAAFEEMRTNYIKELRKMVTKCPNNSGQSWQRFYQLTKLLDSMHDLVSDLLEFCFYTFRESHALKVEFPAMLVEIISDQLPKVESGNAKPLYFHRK
Method in brief: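 Lysate supernatant of Sf9 cells expressing full-length human MR (20-25 μg protein) was incubated with 0.5 nM [3H]-aldosterone and test compound in molybdate/Tris/phosphate/glycerol buffer, pH 7.5, ~16 h at 4 °C. Bound ligand was filtered and counted by scintillation; IC50 is the concentration halving [3H]-aldosterone binding.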

glucocorticoid receptor = molecular target: T2, glucocorticoid receptor (Homo sapiens, UniProt P04150); assay: Glucocorticoid Receptor Binding Assay ([3H]-dexamethasone, A549 cell extract); conditions: [3H]-dexamethasone binding, read-out: GR Ki
T2 construct: containing 50-200 ug of A549 cell extract and 1.86 nM [^3H]-dexamethasone; host or cells: A549 human lung epithelial cells (sonicated cell extract)
T2 sequence (P04150 1-777): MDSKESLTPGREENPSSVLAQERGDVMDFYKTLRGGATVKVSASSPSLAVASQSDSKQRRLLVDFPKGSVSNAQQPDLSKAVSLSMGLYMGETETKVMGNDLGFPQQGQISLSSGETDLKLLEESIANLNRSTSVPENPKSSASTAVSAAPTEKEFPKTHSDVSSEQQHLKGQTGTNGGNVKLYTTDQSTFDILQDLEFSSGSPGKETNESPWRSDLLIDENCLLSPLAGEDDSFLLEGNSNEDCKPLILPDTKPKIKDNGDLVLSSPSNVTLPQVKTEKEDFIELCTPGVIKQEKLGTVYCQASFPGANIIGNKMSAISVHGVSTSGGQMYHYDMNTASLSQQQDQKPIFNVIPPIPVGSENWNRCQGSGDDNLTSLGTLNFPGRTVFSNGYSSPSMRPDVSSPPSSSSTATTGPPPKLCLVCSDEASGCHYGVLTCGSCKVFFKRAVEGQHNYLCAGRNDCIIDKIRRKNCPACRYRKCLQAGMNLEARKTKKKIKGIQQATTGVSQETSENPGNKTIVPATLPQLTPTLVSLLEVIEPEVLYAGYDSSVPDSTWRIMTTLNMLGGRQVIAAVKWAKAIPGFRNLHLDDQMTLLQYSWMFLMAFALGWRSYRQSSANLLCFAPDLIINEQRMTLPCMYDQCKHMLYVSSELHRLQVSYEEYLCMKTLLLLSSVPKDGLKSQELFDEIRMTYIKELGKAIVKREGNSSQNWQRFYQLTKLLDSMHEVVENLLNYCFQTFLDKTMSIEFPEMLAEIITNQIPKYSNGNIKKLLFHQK
Method in brief: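 A549 cell extract (50–200 ug) incubated with 1.86 nM [3H]-dexamethasone and test compound for 16 h at 4 °C in Tris-HCl pH 7.2 buffer with glycerol and molybdate. Unbound radioligand removed by dextran-coated charcoal, then supernatant bound counts measured by scintillation.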

SMILES	reduced cardiac related mortality [1]	reduced frequency of hospitalization [1]	Ki (human MR)	Ki (glucocorticoid receptor)	melting point
CC(=O)S[C@@H]1CC2=CC(=O)CC[C@]2(C)[C@H]2CC[C@@]3(C)[C@@H](CC[C@@]34CCC(=O)O4)[C@H]12 [spironolactone]	30%	35%	–	–	–
CS(=O)(=O)Nc1cc(C=C2c3ccccc3CCc3ccccc32)ccc1O [Example 64, N-[5-(10,11-Dihydro-dibenzo[a,d]cyclohepten-5-ylidenemethyl)-2-hydroxy-phenyl]-methanesulfonamide]	–	–	< 0.5 µM	< 0.5 µM	122.6 °C
OCc1ccccc1C=C1c2ccccc2CCc2ccccc21 [Example 74, [2-(10,11-Dihydro-dibenzo[a,d]cyclohepten-5-ylidenemethyl)-phenyl]-methanol]	–	–	< 0.5 µM	< 0.5 µM	121.8 °C
N#Cc1ccccc1C=C1c2ccccc2CCc2ccccc21 [Example 80, 2-(10,11-Dihydro-dibenzo[a,d]cyclohepten-5-ylidenemethyl)-benzonitrile]	–	–	< 0.5 µM	< 0.5 µM	185.4 °C
CNS(=O)(=O)c1cccc(C=C2c3ccccc3CCc3ccccc32)c1 [Example 1, 3-(10,11-Dihydro-dibenzo[a,d]cyclohepten-5-ylidenemethyl)-N-methyl-benzenesulfonamide]	–	–	< 0.5 µM	< 0.5 µM	153.9 °C
